Data on three molecules can be found in US20070259894A1, “Use of Atazanavir for Improving the Pharmacokinetics of Drugs Metabolized by Ugt1a1” (priority 2004, published 2007).

A short description of data set [1]: Hygroscopicity by vapor sorption analysis. The data set is classed as physicochemical. Conditions: equilibrated at 95% RH at 25° C. As for the experimental part: Hygroscopicity data was obtained on a VTI Symmetrical Vapor Sorption Analyzer Model SGA-1. Data was collected at room temperature from 5-95% relative humidity and back, 5% relative humidity change per step. Equilibrium conditions were 0.01 weight percent change in 5 minutes with a maximum equilibration time of 180 minutes. […] When equilibrated back down to 5% RH, the material returned back to approximately its dry weight.

Data set [2] relates to glucuronidation of Compound A by rat liver microsomes. Briefly: Inhibition by atazanavir of glucuronidation of Compound A by rat liver microsomes. The data set is classed as biochemical. Conditions: atazanavir at a concentration of 50 μM. As for the experimental part: The IC50 value of atazanavir for inhibition of glucuronidation of Compound A by human liver microsomes was determined using a pool of human liver microsomes (obtained from Xenotech LLC, Lenexa, Kans.). Compound A (as the potassium salt) was added to human liver microsomes (1.0 mg/mL) in a buffer consisting of 0.1 M potassium phosphate buffer (pH=7.4), 5 mM magnesium chloride, 10 μg/mL alamethicin, and 10 mM D-saccharic acid 1,4-lactone. The mixture of Compound A and the buffered microsomes (0.5 mL) was incubated at Compound A's Km (200 μM). UDPGA was added to the incubated sample to a concentration of 4 mM to initiate the glucuronidation reaction, which was stopped after 25 minutes (37° C.) with 2 volumes (i.e., 1 mL) of acetonitrile containing 1.5 μM of Compound B as an internal standard for the subsequent LC/MS analysis. Each of the samples was then centrifuged and the resulting supernatant was diluted 1:1 with 0.1% formic acid in water and a 10 μL aliquot was injected onto the LC/MS to determine the amount of glucuronide formation. […]
The IC50 value of atazanavir for inhibition of glucuronidation of Compound A in the presence of rat liver microsomes was determined using a procedure similar to that just described above for human liver microsomes.
For orientation: Liver microsomes are a subcellular fraction often used to study metabolism.

A short description of data set [3]: In vivo rat studies: plasma levels of Compound A with and without atazanavir. On the set-up: species or system Male Sprague-Dawley rats. To be noted: for AUC / Cmax: male, Sprague-Dawley, plasma. As for the experimental part: Male Sprague-Dawley rats (4 rats/group) weighing approximately 300 grams each were given orally either 0.5% methylcellulose in water (control group) or atazanavir in 0.5% methylcellulose once a day for three days. The atazanavir daily doses were 50 mg/kg and were administered in 0.5% methylcellulose at 5 mL/kg. On day four the control rats were dosed with 10 mg/kg of Compound A in the form of a potassium salt in 0.5% methylcellulose while the treatment group received atazanavir followed by an oral dose of 10 mg/kg of Compound A (as potassium salt) in 0.5% methylcellulose. Blood samples were taken from all rats in treatment and control groups at 0, 0.25, 0.5, 1, 2, 4, 6, 8, and 24 hours post dose on day 4. Plasma levels of Compound A were determined by LC-MS/MS as follows:
UDP-glucuronosyltransferase activity was determined by measuring the formation of the glucuronide of Compound A. HPLC analysis was carried out on an Agilent HP 1100 gradient system using the following parameters: column=Phenomenex Luna C18-2 (2 mm×150 mm, 5 μm); mobile phase=0.1% formic acid in water (solvent A) and 0.1% formic acid in acetonitrile (solvent B); flow rate=0.2 mL/min; procedure=the initial solvent composition of 10% B was increased to 80% B over 10 minutes, followed by holding solvent B constant at 80% for 3 minutes, and then returning to initial conditions for 6 minutes. The HPLC system was interfaced with a Finnigan TSQ Quantum tandem mass spectrometer. Mass spectral analyses were carried out using electrospray ionization (ESI) in the positive ion mode. The temperature for the ion transfer tube was 320° C. and the ESI ionizing voltage was maintained at 4.4 kV for all analyses. Tandem mass spectrometry (MS/MS) was based on collision-induced dissociation (CID) of ions entering the rf-only octapole region where argon was used as the collision gas at a pressure of 0.8 mtorr. A collision offset at −22 eV was used for MS/MS analyses. The CID transitions used were m/z=621.1→445.1 (Compound A glucuronide) and 431.2→306.1 (Compound B).

The nature of data set [4]: In vivo human studies: plasma PK of Compound A with and without atazanavir. To be noted: for half-life: male, plasma, oral, read-out: alpha phase half-life (converted). On the set-up: species or system healthy human male volunteers. As for the experimental part:
The protocol was a 2-period, fixed sequence study in healthy human male volunteers to examine the influence of multiple doses of atazanavir on a single dose of Compound A. In Period 1, 12 subjects received a single oral dose of 100 mg of Compound A (i.e., a tablet as described in Part B of Example 3) (N=10) or placebo (N=2). In Period 2, the same 12 subjects were administered 400 mg atazanavir once daily in an open-label fashion (capsules) for 9 days. On Day 7, the subjects were administered atazanavir in combination with a single oral dose of 100 mg of Compound A (tablet) or placebo (the same subjects received placebo in both study periods). All doses were administered following a moderate-fat meal. Plasma PK samples were collected for 72 hours following the dose of Compound A in both periods.
Sample preparation and analysis: The plasma samples were extracted using 96-well liquid-liquid extraction. Plasma extracts were injected onto an Ace C18 (50×3.0 mm, 3 μm, titanium rits) HPLC column and analyzed under isocratic conditions with a mobile phase consisting of 42.5/57.5 (v/v %) 0.1 mM EDTA in 0.1% formic acid/methanol, at a flow rate of 0.5 mL/minute. The sample extracts were ionized using an APCI interface and were monitored by MRM in the positive ionization mode. The dynamic range of the LC/MS/MS assay was 2-1000 ng/mL based on a 200 μL aliquot of human plasma.
PK Calculations: Area under the curve for a plot of plasma concentration v. time to last detectable concentration (AUC0-last), was calculated using a non-compartmental model and the Linear Up/Log Down calculation method in WinNonlin Version 4.1. Data points after Cmax were fitted to a biexponential equation (A*exp(−αt)+B*exp(−βt)) using WinNonlin v4.1, and AUC values were extrapolated to infinity according to the following equation: […]=AUC0-last+Clast/β, where Clast is the last detectable concentration and β comes from the above-noted biexponential equation. Observed maximum plasma concentration (Cmax), time of Cmax (Tmax), and plasma concentration at 12 hr post dosing (C12hr) were determined by inspection.

The mark [5] stands for this setting: Compound A control group, oral 10 mg/kg (K salt), no atazanavir.
The mark [6] stands for this setting: oral Compound A 10 mg/kg (K salt) on day 4 with oral atazanavir 50 mg/kg once a day.
Where [7] appears, read: single oral 100 mg Compound A tablet, atazanavir 400 mg once daily, moderate-fat meal.

SMILES strings stand for the structures. Where two headings read alike, the source gives them in different places.

For `Cc1nnc(C(=O)NC(C)(C)c2nc(C(=O)NCc3ccc(F)cc3)c([O-])c(=O)n2C)o1.[K+]`, in data set [1], the “weight increase (hygroscopicity)” value was 1.8%.
For `COC(=O)N[C@H](C(=O)N[C@@H](Cc1ccccc1)[C@@H](O)CN(Cc1ccc(-c2ccccn2)cc1)NC(=O)[C@@H](NC(=O)OC)C(C)(C)C)C(C)(C)C` (relative stereo) [atazanavir, [3S-(3R*, 8′R*, 9′R*, 12R*)]-3,12-bis(1,1-dimethylethyl)-8-hydroxy-4,11-dioxo-9-(phenylmethyl)-6-[[4-(2-pyridinyl)phenylmethyl]2,5,6,10,13-pentaazatetradecanedioic] acid, dimethyl ester], the “inhibition of the glucuronidation of Compound A” value in data set [2] was determined as 41%.
For orientation: AUC means the area under the concentration-time curve, a measure of exposure. What is called Cmax is the peak of the concentration-time curve. As a reminder, the half-life is the time needed for the level to fall by half in the phase considered. Turning to `Cc1nnc(C(=O)NC(C)(C)c2nc(C(=O)NCc3ccc(F)cc3)c(O)c(=O)n2C)o1` [Compound A, N-(4-fluorobenzyl)-5-hydroxy-1-methyl-2-(1-methyl-1-{[(5-methyl-1,3,4-oxadiazol-2-yl)carbonyl]amino}ethyl)-6-oxo-1,6-dihydroxypyrimidine-4-carboxamide], in data set [3] (atazanavir 50 mg/kg plus Compound A 10 mg/kg versus Compound A alone), the “increase of plasma levels of Compound A by atazanavir” value is on record as “about 3 fold”. For the same molecule, in data set [3] (setting [5]), the AUC came to 2.9 ± 0.6 µM·h and the Cmax is 2.3 ± 0.9 µM. In addition, in data set [3] (setting [6]), the AUC stood at 9.9 ± 3.7 µM·h and the Cmax is 7.2 ± 6.1 µM. In addition, the half-life in data set [4] (100 mg Compound A alone) was 1.1 h. Further, in data set [4] (100 mg Compound A in the presence of atazanavir 400 mg once daily), the half-life was 1.4 h. In data set [4] (setting [7]), the “AUC0-last GMR in the presence versus absence of atazanavir” value is 1.73, the “Cmax GMR in the presence versus absence of atazanavir” value is given as 1.53 and the “geometric mean ratio (GMR) 12 hr concentration in the presence versus absence of atazanavir” value was 1.96.
